# Reference: patent publication US11931424B2, “Combination MCL-1 inhibitors with anti-body drug conjugates” (Gilead Sciences, Inc., priority 2021, dated 2024)
# Test system: panel of breast cancer cell lines
# Assay: Compound A with targeted agents and chemotherapies, 72-hour in vitro proliferation assays
# Format: cell-based
# Settings: 72-hour proliferation
# [1] = AU565 cell line, compound A × partner
# [2] = BT-20 cell line, compound A × partner
# [3] = BT-474 cell line, compound A × partner
# [4] = BT-549 cell line, compound A × partner
# [5] = CAL-51 cell line, compound A × partner
# [6] = CAL-85-1 cell line, compound A × partner
# [7] = CAL-120 cell line, compound A × partner
# [8] = CAL-148 cell line, compound A × partner
# [9] = CAMA-1 cell line, compound A × partner
# [10] = DU-4475 cell line, compound A × partner
# [11] = EVSA-T cell line, compound A × partner
# [12] = HCC1143 cell line, compound A × partner
# [13] = MCF7 cells, Compound A × partner agent
# [14] = MDA-MB-175-VII cells, Compound A × partner agent
# [15] = MDA-MB-231 cells, Compound A × partner agent
# [16] = MDA-MB-361 cells, Compound A × partner agent
# [17] = MDA-MB-436 cells, Compound A × partner agent
# [18] = MDA-MB-453 cells, Compound A × partner agent
# [19] = MDA-MB-468 cells, Compound A × partner agent
# [20] = SK-BR-3 cells, Compound A × partner agent
# [21] = SUM159PT cells, combination of compound A with the named agent
# [22] = T47D cells, combination of compound A with the named agent
# [23] = ZR-75-1 cells, combination of compound A with the named agent
# [24] = ZR-75-30 cells, combination of compound A with the named agent
structure (smiles),measurement,setting,value
N.N.[Cl][Pt][Cl] [Cisplatin],Best CI,[1],0.79
same,Bliss Volume,[1],7.67
same,HSA volume,[1],−6.49
same,Loewe Volume,[1],−5.19
same,Synergy Score,[1],1.66
same,Best CI,[2],0.90
same,Bliss Volume,[2],13.49
same,HSA volume,[2],−0.68
same,Loewe Volume,[2],−2.71
same,Synergy Score,[2],2.27
same,Best CI,[3],0.47
same,Bliss Volume,[3],−2.63
same,HSA volume,[3],−4.63
same,Loewe Volume,[3],−4.42
same,Synergy Score,[3],2.85
same,Best CI,[4],1.01
same,Bliss Volume,[4],7.35
same,HSA volume,[4],2.86
same,Loewe Volume,[4],4.16
same,Synergy Score,[4],6.80
same,Best CI,[5],0.48
same,Bliss Volume,[5],7.18
same,HSA volume,[5],4.36
same,Loewe Volume,[5],6.98
same,Synergy Score,[5],9.30
same,Best CI,[6],1.09
same,Bliss Volume,[6],6.84
same,HSA volume,[6],4.63
same,Loewe Volume,[6],4.66
same,Synergy Score,[6],6.29
same,Best CI,[7],0.19
same,Bliss Volume,[7],1.51
same,HSA volume,[7],0.51
same,Loewe Volume,[7],1.48
same,Synergy Score,[7],1.13
same,Best CI,[8],0.13
same,Bliss Volume,[8],19.20
same,HSA volume,[8],19.03
same,Loewe Volume,[8],18.76
same,Synergy Score,[8],37.06
same,Best CI,[9],0.23
same,Bliss Volume,[9],16.63
same,HSA volume,[9],9.61
same,Loewe Volume,[9],9.28
same,Synergy Score,[9],18.49
same,Best CI,[10],0.29
same,Bliss Volume,[10],14.10
same,HSA volume,[10],5.48
same,Loewe Volume,[10],5.54
same,Synergy Score,[10],7.00
same,Best CI,[11],0.39
same,Bliss Volume,[11],20.06
same,HSA volume,[11],3.60
same,Loewe Volume,[11],1.90
same,Synergy Score,[11],2.53
same,Best CI,"HCC38, compound A × partner",0.60
same,Best CI Level,"HCC38, compound A × partner",115
same,Bliss Volume,"HCC38, compound A × partner",8.46
same,HSA volume,"HCC38, compound A × partner",3.08
same,Loewe Volume,"HCC38, compound A × partner",2.06
same,Synergy Score,"HCC38, compound A × partner",6.47
same,Best CI,"HCC70, compound A × partner",0.45
same,Best CI Level,"HCC70, compound A × partner",175
same,Bliss Volume,"HCC70, compound A × partner",18.00
same,HSA volume,"HCC70, compound A × partner",4.42
same,Loewe Volume,"HCC70, compound A × partner",2.24
same,Synergy Score,"HCC70, compound A × partner",9.16
same,Best CI,[12],0.39
same,Bliss Volume,[12],−0.20
same,HSA volume,[12],−5.78
same,Loewe Volume,[12],−3.31
same,Synergy Score,[12],2.45
same,Best CI,"HCC1569, compound A × partner",0.43
same,Best CI Level,"HCC1569, compound A × partner",25
same,Bliss Volume,"HCC1569, compound A × partner",1.33
same,HSA volume,"HCC1569, compound A × partner",−1.41
same,Loewe Volume,"HCC1569, compound A × partner",−2.74
same,Synergy Score,"HCC1569, compound A × partner",1.82
same,Best CI,"HCC1806, compound A × partner",0.22
same,Best CI Level,"HCC1806, compound A × partner",70
same,Bliss Volume,"HCC1806, compound A × partner",8.46
same,HSA volume,"HCC1806, compound A × partner",3.81
same,Loewe Volume,"HCC1806, compound A × partner",5.93
same,Synergy Score,"HCC1806, compound A × partner",7.76
same,Best CI,"HCC1937, compound A × partner",1.07
same,Best CI Level,"HCC1937, compound A × partner",105
same,Bliss Volume,"HCC1937, compound A × partner",1.32
same,HSA volume,"HCC1937, compound A × partner",−1.15
same,Loewe Volume,"HCC1937, compound A × partner",−0.59
same,Synergy Score,"HCC1937, compound A × partner",1.75
same,Best CI,"HCC1954, compound A × partner",0.84
same,Best CI Level,"HCC1954, compound A × partner",180
same,Bliss Volume,"HCC1954, compound A × partner",5.89
same,HSA volume,"HCC1954, compound A × partner",−0.89
same,Loewe Volume,"HCC1954, compound A × partner",−1.88
same,Synergy Score,"HCC1954, compound A × partner",5.58
same,Best CI,"HCC2218, compound A × partner",0.54
same,Best CI Level,"HCC2218, compound A × partner",165
same,Bliss Volume,"HCC2218, compound A × partner",9.34
same,HSA volume,"HCC2218, compound A × partner",2.71
same,Loewe Volume,"HCC2218, compound A × partner",−0.66
same,Synergy Score,"HCC2218, compound A × partner",7.99
same,Best CI,"HDQ-P1, compound A × partner",0.60
same,Best CI Level,"HDQ-P1, compound A × partner",30
same,Bliss Volume,"HDQ-P1, compound A × partner",0.53
same,HSA volume,"HDQ-P1, compound A × partner",−0.23
same,Loewe Volume,"HDQ-P1, compound A × partner",0.64
same,Synergy Score,"HDQ-P1, compound A × partner",1.46
same,Best CI,"HMC-1-8, compound A × partner",0.35
same,Best CI Level,"HMC-1-8, compound A × partner",180
same,Bliss Volume,"HMC-1-8, compound A × partner",20.03
same,HSA volume,"HMC-1-8, compound A × partner",7.01
same,Loewe Volume,"HMC-1-8, compound A × partner",6.38
same,Synergy Score,"HMC-1-8, compound A × partner",14.62
same,Best CI,"JIMT-1, compound A × partner",0.61
same,Best CI Level,"JIMT-1, compound A × partner",20
same,Bliss Volume,"JIMT-1, compound A × partner",0.69
same,HSA volume,"JIMT-1, compound A × partner",−1.64
same,Loewe Volume,"JIMT-1, compound A × partner",−0.53
same,Synergy Score,"JIMT-1, compound A × partner",1.21
same,Best CI,"KPL-1, compound A × partner",0.76
same,Best CI Level,"KPL-1, compound A × partner",110
same,Bliss Volume,"KPL-1, compound A × partner",−0.41
same,HSA volume,"KPL-1, compound A × partner",0.95
same,Loewe Volume,"KPL-1, compound A × partner",0.45
same,Synergy Score,"KPL-1, compound A × partner",4.51
same,Best CI,[13],0.45
same,Best CI Level,[13],150
same,Bliss Volume,[13],11.15
same,HSA volume,[13],4.64
same,Loewe Volume,[13],3.51
same,Synergy Score,[13],6.98
same,Best CI,[14],0.49
same,Best CI Level,[14],60
same,Bliss Volume,[14],9.70
same,HSA volume,[14],−1.47
same,Loewe Volume,[14],2.49
same,Synergy Score,[14],4.03
same,Best CI,[15],0.34
same,Best CI Level,[15],70
same,Bliss Volume,[15],5.98
same,HSA volume,[15],4.74
same,Loewe Volume,[15],6.47
same,Synergy Score,[15],4.48
same,Best CI,[16],0.81
same,Best CI Level,[16],165
same,Bliss Volume,[16],3.24
same,HSA volume,[16],−1.91
same,Loewe Volume,[16],−2.31
same,Synergy Score,[16],3.36
same,Best CI,[17],1.18
same,Best CI Level,[17],120
same,Bliss Volume,[17],2.08
same,HSA volume,[17],1.62
same,Loewe Volume,[17],1.58
same,Synergy Score,[17],2.45
same,Best CI,[18],0.34
same,Best CI Level,[18],70
same,Bliss Volume,[18],13.82
same,HSA volume,[18],4.06
same,Loewe Volume,[18],4.70
same,Synergy Score,[18],9.66
same,Best CI,[19],0.53
same,Best CI Level,[19],105
same,Bliss Volume,[19],27.91
same,HSA volume,[19],5.89
same,Loewe Volume,[19],4.42
same,Synergy Score,[19],8.65
same,Best CI,[20],0.14
same,Best CI Level,[20],150
same,Bliss Volume,[20],19.53
same,HSA volume,[20],6.00
same,Loewe Volume,[20],5.11
same,Synergy Score,[20],10.90
same,Best CI,[21],0.79
same,Best CI Level,[21],20
same,Bliss Volume,[21],−1.91
same,HSA volume,[21],−4.36
same,Loewe Volume,[21],−4.20
same,Synergy Score,[21],0.41
same,Best CI,[22],0.79
same,Best CI Level,[22],80
same,Bliss Volume,[22],−0.02
same,HSA volume,[22],0.03
same,Loewe Volume,[22],0.73
same,Synergy Score,[22],3.05
same,Best CI,[23],0.88
same,Best CI Level,[23],155
same,Bliss Volume,[23],9.45
same,HSA volume,[23],7.38
same,Loewe Volume,[23],8.42
same,Synergy Score,[23],12.40
same,Best CI,[24],0.24
same,Best CI Level,[24],95
same,Bliss Volume,[24],14.77
same,HSA volume,[24],8.48
same,Loewe Volume,[24],9.66
same,Synergy Score,[24],16.44
